{"source": "ChEMBL document CHEMBL3112456", "about": "“Dual inhibition of HCV and HIV by ring-expanded nucleosides containing the 5:7-fused imidazo[4,5-e][1,3]diazepine ring system. In vitro results and implications” (Bioorg Med Chem Lett, 2014)", "key": {"Huh-7": {"tested_on": "Huh-7", "assay": "Cytotoxicity against human HuH7 cells assessed as beta-actin levels relative to control", "assay_type": "cell-based"}, "[1]": {"assay": "Selectivity index, ratio of beta-actin level in human HuH7 cells to viral RNA level in HCV infected in human Huh7 cells", "parameters": "species or system Huh-7"}, "Hepatitis C virus [2]": {"tested_on": "Hepatitis C virus", "assay": "Antiviral activity against HCV infected in human Huh7 cells assessed as reduction in RNA level by luciferase reporter gene assay relative to control", "assay_type": "functional, Hepacivirus hominis, Huh-7", "parameters": "scale not given: the % may be the effect or the level left"}, "Hepacivirus hominis [3]": {"tested_on": "Hepacivirus hominis", "assay": "Inhibition of helicase activity of HCV NTPase/helicase using radio-labelled double-stranded RNA as substrate up to 300 ug/ml after 30 mins"}, "Hepacivirus hominis [4]": {"tested_on": "Hepacivirus hominis", "assay": "Inhibition of helicase activity of HCV NTPase/helicase using radio-labelled double-stranded DNA as substrate up to 300 ug/ml after 30 mins"}, "[5]": {"tested_on": "Human immunodeficiency virus", "assay": "Antiviral activity against HIV", "assay_type": "functional, organism-based"}, "Hepacivirus hominis [6]": {"tested_on": "Hepacivirus hominis", "assay": "Inhibition of helicase activity of HCV NTPase/helicase using radio-labelled double-stranded RNA as substrate after 30 mins"}, "Hepacivirus hominis [7]": {"tested_on": "Hepacivirus hominis", "assay": "Inhibition of NTPase activity of HCV NTPase/helicase using 105 microM gamma-[32P]ATP as substrate up to 0.7 mM after 30 mins"}, "Hepatitis C virus [8]": {"tested_on": "Hepatitis C virus", "assay": "Antiviral activity against HCV genotype 1b infected in human BM4-5 cells reduction in RNA level after 5 days by luciferase reporter gene assay relative to control", "assay_type": "functional, organism-based, Hepacivirus hominis", "details": "BM4-5, 120 h"}, "Hepacivirus hominis [9]": {"tested_on": "Hepacivirus hominis", "assay": "Inhibition of NTPase activity of HCV NTPase/helicase using 1 x 10^-5 M gamma-[32P]ATP as substrate up to 0.7 mM after 30 mins"}, "[10]": {"assay": "Cytotoxicity against human BM4-5 cells after 5 days by Neutral Red dye assay", "assay_type": "cell-based", "details": "bm4-5, 120 h"}, "[11]": {"assay": "Inhibition of helicase activity of HCV NTPase/helicase using radio-labelled double-stranded DNA as substrate after 30 mins", "parameters": "species or system Hepacivirus hominis"}}, "note": "Activity calls are given as the source filed them. The rule behind the calls is not given here."}
{"smiles": "NC(=O)c1ncn([C@@H]2O[C@H](CO)[C@@H](O)[C@H]2O)n1", "note": "[RIBAVIRIN]", "values": [{"measurement": "Activity", "setting": "Huh-7", "result": 12, "unit": "%"}, {"measurement": "Selectivity Index", "setting": "[1]", "result": 0.14}, {"measurement": "Activity", "setting": "Hepatitis C virus [2]", "result": 89, "unit": "%"}]}
{"smiles": "CCCCCCCCCCCCCCCCNc1nc(=O)c2ncn([C@@H]3O[C@H](CO)[C@@H](O)[C@H]3O)c2c(=O)[nH]1", "values": [{"measurement": "inhibition", "setting": "Hepacivirus hominis [3]", "result": "inactive"}, {"measurement": "inhibition", "setting": "Hepacivirus hominis [4]", "result": "inactive"}]}
{"smiles": "CCCCCCCCCCCCNc1nc(=O)c2ncn([C@@H]3O[C@H](CO)[C@@H](O)[C@H]3O)c2c(=O)[nH]1", "values": [{"measurement": "inhibition", "setting": "Hepacivirus hominis [3]", "result": "inactive"}, {"measurement": "inhibition", "setting": "Hepacivirus hominis [4]", "result": "inactive"}]}
{"smiles": "CCCCCCCCNc1nc(=O)c2ncn([C@@H]3O[C@H](CO)[C@@H](O)[C@H]3O)c2c(=O)[nH]1", "values": [{"measurement": "inhibition", "setting": "Hepacivirus hominis [3]", "result": "inactive"}, {"measurement": "inhibition", "setting": "Hepacivirus hominis [4]", "result": "inactive"}]}
{"smiles": "CCCCCCCCNc1nc(=O)c2ncn([C@@H]3C[C@H](O)[C@@H](CO)O3)c2c(=O)[nH]1", "values": [{"measurement": "inhibition", "setting": "Hepacivirus hominis [3]", "result": "inactive"}, {"measurement": "inhibition", "setting": "Hepacivirus hominis [4]", "result": "inactive"}]}
{"smiles": "CCCCCCCCCCNc1nc(=O)c2ncn([C@@H]3C[C@H](O)[C@@H](CO)O3)c2c(=O)[nH]1", "values": [{"measurement": "inhibition", "setting": "Hepacivirus hominis [3]", "result": "inactive"}, {"measurement": "inhibition", "setting": "Hepacivirus hominis [4]", "result": "inactive"}]}
{"smiles": "CCCCCCCCCCCCCCCCCCN", "values": [{"measurement": "Activity", "setting": "[5]", "result": "inactive"}, {"measurement": "Activity", "setting": "Hepatitis C virus [2]; Hepacivirus hominis, Huh-7", "result": "inactive"}]}
{"smiles": "CCCCCCCCCCCCCCCCCCNc1nc(=O)c2ncn([C@@H]3O[C@H](CO)[C@@H](O)[C@H]3O)c2c(=O)[nH]1", "values": [{"measurement": "inhibition", "setting": "Hepacivirus hominis [6]", "result": "Active"}, {"measurement": "inhibition", "setting": "Hepacivirus hominis [7]", "result": "inactive"}, {"measurement": "IC50", "setting": "Hepatitis C virus [8]", "result": 16, "unit": "µM"}, {"measurement": "inhibition", "setting": "Hepacivirus hominis [9]", "result": "inactive"}, {"measurement": "Activity", "setting": "Huh-7", "result": 98, "unit": "%"}, {"measurement": "Activity", "setting": "[10]", "result": "Non-toxic"}, {"measurement": "Selectivity Index", "setting": "[1]", "result": 10.89}, {"measurement": "Activity", "setting": "Hepatitis C virus [2]", "result": 9, "unit": "%"}, {"measurement": "IC50", "setting": "[11]", "result": 6, "unit": "µg/mL"}]}
{"smiles": "CCCCCCCCCCNc1nc(=O)c2ncn([C@@H]3O[C@H](CO)[C@@H](O)[C@H]3O)c2c(=O)[nH]1", "values": [{"measurement": "inhibition", "setting": "Hepacivirus hominis [3]", "result": "inactive"}, {"measurement": "inhibition", "setting": "Hepacivirus hominis [4]", "result": "inactive"}]}
{"smiles": "CCCCCCCCCCCCCCCCCCNc1nc(=O)c2ncn([C@@H]3C[C@H](O)[C@@H](CO)O3)c2c(=O)[nH]1", "values": [{"measurement": "inhibition", "setting": "Hepacivirus hominis [6]", "result": "Active"}, {"measurement": "inhibition", "setting": "Hepacivirus hominis [7]", "result": "inactive"}, {"measurement": "IC50", "setting": "Hepatitis C virus [8]", "result": 18, "unit": "µM"}, {"measurement": "inhibition", "setting": "Hepacivirus hominis [9]", "result": "inactive"}, {"measurement": "Activity", "setting": "Huh-7", "result": 99, "unit": "%"}, {"measurement": "Activity", "setting": "[10]", "result": "Non-toxic"}, {"measurement": "Selectivity Index", "setting": "[1]", "result": 9.9}, {"measurement": "Activity", "setting": "Hepatitis C virus [2]", "result": 10, "unit": "%"}, {"measurement": "IC50", "setting": "[11]", "result": 5.5, "unit": "µg/mL"}]}
{"smiles": "CCCCCCCCCCCCCCN", "values": [{"measurement": "Activity", "setting": "[5]", "result": "inactive"}, {"measurement": "Activity", "setting": "Hepatitis C virus [2]; Hepacivirus hominis, Huh-7", "result": "inactive"}]}
{"smiles": "CCCCCCCCCCCCCCCCNc1nc(=O)c2ncn([C@@H]3C[C@H](O)[C@@H](CO)O3)c2c(=O)[nH]1", "values": [{"measurement": "inhibition", "setting": "Hepacivirus hominis [3]", "result": "inactive"}, {"measurement": "inhibition", "setting": "Hepacivirus hominis [4]", "result": "inactive"}]}
{"smiles": "CCCCCCCCCCCCCCNc1nc(=O)c2ncn([C@@H]3O[C@H](CO)[C@@H](O)[C@H]3O)c2c(=O)[nH]1", "values": [{"measurement": "inhibition", "setting": "Hepacivirus hominis [3]", "result": "inactive"}, {"measurement": "inhibition", "setting": "Hepacivirus hominis [4]", "result": "inactive"}]}
{"smiles": "CCCCCCCCCCCCCCNc1nc(=O)c2ncn([C@@H]3C[C@H](O)[C@@H](CO)O3)c2c(=O)[nH]1", "values": [{"measurement": "inhibition", "setting": "Hepacivirus hominis [3]", "result": "inactive"}, {"measurement": "inhibition", "setting": "Hepacivirus hominis [4]", "result": "inactive"}]}
